Reference: US6610677B2, “Pyrazole compounds useful as protein kinase inhibitors” (Vertex Pharmaceuticals Incorporated, priority 2000, dated 2003)

Key:
GSK-3β (AA 1-420) = molecular target: T1, GSK-3β (AA 1-420) (Homo sapiens, UniProt P49841); assay: Ki determination for the inhibition of GSK-3 (coupled enzyme system); type: biochemical; conditions: 20 μM ATP, 300 μM peptide, 20 nM GSK-3β, 30° C
T1 construct: GSK-3β (AA 1-420)
Procedure, shortened: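 Ki values come from reaction rates over 10 min at 30 °C as a function of inhibitor concentration (12-point titration, 0.002–30 μM, 10 min preincubation). GSK-3β (AA 1-420, 20 nM) phosphorylated 300 μM primed peptide with 20 μM ATP; ADP formation followed by coupled NADH oxidation, pH 7.5.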

Aurora-2 = molecular target: T2, Aurora-2 (Homo sapiens, UniProt O14965); assay: Ki determination for the inhibition of Aurora-2 (coupled enzyme assay); type: biochemical; conditions: 70 nM Aurora-2, peptide LRRASLG, 30° C
T2 sequence (O14965 1-403): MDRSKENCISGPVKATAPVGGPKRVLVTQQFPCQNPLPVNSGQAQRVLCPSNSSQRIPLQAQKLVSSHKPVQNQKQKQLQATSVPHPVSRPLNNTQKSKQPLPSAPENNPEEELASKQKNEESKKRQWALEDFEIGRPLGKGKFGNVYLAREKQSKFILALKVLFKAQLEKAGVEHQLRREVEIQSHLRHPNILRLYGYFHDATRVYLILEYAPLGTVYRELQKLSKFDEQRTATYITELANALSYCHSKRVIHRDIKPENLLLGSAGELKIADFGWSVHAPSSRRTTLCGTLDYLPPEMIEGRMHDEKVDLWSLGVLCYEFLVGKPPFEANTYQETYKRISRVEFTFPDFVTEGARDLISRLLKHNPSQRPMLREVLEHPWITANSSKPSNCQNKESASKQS
Protocol: Compounds were screened in the following manner for their ability to inhibit Aurora-2 using a standard coupled enzyme assay (Fox et al (1998) Protein Sci 7, 2249).
To an assay stock buffer solution containing 0.1M HEPES 7.5, 10 mM MgCl2, 1 mM DTT, 25 mM NaCl, 2.5 mM phosphoenolpyruvate, […], 30 mg/ml pyruvate kinase, 10 mg/ml lactate dehydrogenase, […], and 800 μM peptide (LRRASLG, American Peptide, Sunnyvale, Calif.) was added a DMSO solution of a compound of the present invention to a final concentration of 30 μM. The resulting mixture was incubated at 30° C. for 10 min. The reaction was initiated by the addition of 10 μL of Aurora-2 stock solution to give a final concentration of 70 nM in the assay. The rates of reaction were obtained by monitoring absorbance at 340 nm over a 5 minute read time at 30° C. using a BioRad Ultramark plate reader (Hercules, Calif.). The Ki values were determined from the rate data as a function of inhibitor concentration.

T1 sequence (P49841 whole entry, the tested form may be a part): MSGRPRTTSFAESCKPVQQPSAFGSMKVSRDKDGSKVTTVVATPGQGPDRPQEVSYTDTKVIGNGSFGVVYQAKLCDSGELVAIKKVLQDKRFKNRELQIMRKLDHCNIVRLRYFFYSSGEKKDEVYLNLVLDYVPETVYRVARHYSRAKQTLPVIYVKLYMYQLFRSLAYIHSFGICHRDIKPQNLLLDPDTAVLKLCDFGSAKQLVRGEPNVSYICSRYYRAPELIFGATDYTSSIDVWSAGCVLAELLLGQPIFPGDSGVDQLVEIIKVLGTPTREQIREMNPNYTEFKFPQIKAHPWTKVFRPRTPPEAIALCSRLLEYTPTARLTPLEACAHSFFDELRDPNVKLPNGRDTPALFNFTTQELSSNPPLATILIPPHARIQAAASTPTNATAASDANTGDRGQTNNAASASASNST

Structure (SMILES)	Ki (GSK-3β (AA 1-420))	Ki (Aurora-2)
FC(F)(F)c1ccc2[nH]nc(Nc3nc(-c4ccccc4C(F)(F)F)nc4ccccc34)c2c1 [II-64, (5-Trifluoromethyl-1H-indazol-3-yl)-[2-(2-trifluoromethyl-phenyl)-quinazolin-4-yl]-amine]	< 100 nM	100 to 1000 nM
O=[N+]([O-])c1ccc2[nH]nc(Nc3nc(-c4ccccc4C(F)(F)F)nc4ccccc34)c2c1 [II-70, (5-Nitro-1H-indazol-3-yl)-[2-(2-trifluoromethyl-phenyl)-quinazolin-4-yl]-amine]	< 100 nM	100 to 1000 nM
Cc1cc(Nc2nc(-c3cccc(C)c3C)nc3ccccc23)n[nH]1 [II-40, [2-(2,3-Dimethylphenyl)-quinazolin-4-yl]-(5-methyl-2H-pyrazol-3-yl)-amine]	< 100 nM	< 100 nM
FC(F)(F)c1ccccc1-c1nc(Nc2cc[nH]n2)c2ccccc2n1 [II-53, (2H-Pyrazol-3-yl)-[2-(2-trifluoromethylphenyl)-quinazolin-4-yl]-amine]	< 100 nM	100 to 1000 nM
FC(F)(F)c1ccccc1-c1nc(Nc2n[nH]c3cc(Br)ccc23)c2ccccc2n1 [II-82, (6-Bromo-1H-indazol-3-yl)-[2-(2-trifluoromethyl-phenyl)-quinazolin-4-yl]-amine]	< 100 nM	1000 to 20000 nM
FC(F)(F)c1ccccc1-c1cc2ccccc2c(Nc2n[nH]c3ccccc23)n1 [Compound V-2, (1H-Indazol-3-yl)-[3-(2-trifluoromethyl-phenyl)-isoquinoline-1-yl]-amine]	100 to 1000 nM	1000 to 20000 nM
FC(F)(F)c1ccccc1-c1nc(Nc2n[nH]c3ccc(Br)cc23)c2ccccc2n1 [II-79, (5-Bromo-1H-indazol-3-yl)-[2-(2-trifluoromethyl-phenyl)-quinazolin-4-yl]-amine]	< 100 nM	100 to 1000 nM
COc1cccc2c(Nc3n[nH]c4ccccc34)nc(-c3ccccc3C(F)(F)F)nc12 [II-90, (1H-Indazol-3-yl)-[8-methoxy-2-(2-trifluoromethyl-phenyl)-quinazolin-4-yl]-amine]	< 100 nM	1000 to 20000 nM
Cc1ccc2[nH]nc(Nc3nc(-c4ccccc4C(F)(F)F)nc4ccccc34)c2c1 [II-61, (5-Methyl-1H-indazol-3-yl)-[2-(2-trifluoromethyl-phenyl)-quinazolin-4-yl]-amine]	< 100 nM	1000 to 20000 nM
N#Cc1ccccc1-c1nc(Nc2n[nH]c3ccccc23)c2ccccc2n1 [II-78, [2-(2-cyano-phenyl)-quinazolin-4-yl]-(1H-indazol-3-yl)-amine]	< 100 nM	1000 to 20000 nM
Fc1cc(F)c2[nH]nc(Nc3nc(-c4ccccc4Cl)nc4ccccc34)c2c1 [II-76, [2-(2-Chloro-phenyl)-quinazolin-4-yl]-(5,7-difluoro-1H-indazol-3-yl)-amine]	< 100 nM	1000 to 20000 nM
Cc1cc(Nc2nc(-c3ccccc3C)nc3ccccc23)n[nH]1 [II-33, (5-Methyl-2H-pyrazol-3-yl)-[2-(2-methylphenyl)-quinazolin-4-yl]-amine]	< 100 nM	< 100 nM
FC(F)(F)c1ccccc1-c1nc(Nc2n[nH]c3cc(Cl)ccc23)c2ccccc2n1 [II-80, (6-Chloro-1H-indazol-3-yl)-[2-(2-trifluoromethyl-phenyl)-quinazolin-4-yl]-amine]	< 100 nM	1000 to 20000 nM
Fc1ccc2[nH]nc(Nc3nc(-c4ccccc4Cl)nc4ccccc34)c2c1 [II-75, [2-(2-Chloro-phenyl)-quinazolin-4-yl]-(5-fluoro-1H-indazol-3-yl)-amine]	< 100 nM	1000 to 20000 nM
CCc1cc(Nc2cc(C)n[nH]2)nc(-c2ccccc2OC(F)(F)F)n1 [II-105, [6-Ethyl-2-(2-trifluoromethoxy-phenyl)-pyrimidin-4-yl]-(5-methyl-2H-pyrazol-3-yl)-amine]	< 100 nM	100 to 1000 nM
FC(F)(F)c1ccccc1-c1nc(Nc2n[nH]c3ccccc23)cc(-c2ccccc2)n1 [II-20, (1H-Indazol-3-yl)-[6-phenyl-2-(2-trifluoromethyl-phenyl)-pyrimidin-4-yl]-amine]	< 100 nM	100 to 1000 nM
COc1ccccc1-c1nc(Nc2cc(C)[nH]n2)c2ccccc2n1 [II-37, [2-(2-Methoxyphenyl)-quinazolin-4-yl]-(5-methyl-2H-pyrazol-3-yl)-amine]	–	< 100 nM
CC(=O)c1ccccc1-c1nc(Nc2cc(C)[nH]n2)c2ccccc2n1 [II-39, [2-(2-Acetylphenyl)-quinazolin-4-yl]-(5-methyl-2H-pyrazol-3-yl)-amine]	< 100 nM	100 to 1000 nM
FC(F)(F)c1ccccc1-c1nc(Nc2cc(C3CC3)[nH]n2)c2ccccc2n1 [II-55, (5-Cyclopropyl-2H-pyrazol-3-yl)-[2-(2-trifluoromethyl-phenyl)-quinazolin-4-yl]-amine]	–	< 100 nM

Other lines, results leading:

Ki (GSK-3β (AA 1-420))	Ki (Aurora-2)	Structure (SMILES)
< 100 nM	1000 to 20000 nM	FC(F)(F)c1ccccc1-c1nc(Nc2nc[nH]n2)c2ccccc2n1 [IX-47, (2H-[1,2,4]-Triazol-3-yl)-[2-(2-trifluoromethylphenyl)-quinazolin-4-yl]-amine]
< 100 nM	100 to 1000 nM	Fc1ccc2n[nH]c(Nc3nc(-c4ccccc4)nc4ccccc34)c2c1 [III-130, (5-Fluoro-1H-indazol-3-yl)-(2-phenyl-quinazolin-4-yl)-amine]
< 100 nM	< 100 nM	Cc1cc(Nc2nc(-c3ccc(F)c(Cl)c3)nc3ccccc23)[nH]n1 [III-52, [2-(3-Chloro-4-fluorophenyl)-quinazolin-4-yl]-(5-methyl-2H-pyrazol-3-yl)-amine]
< 100 nM	< 100 nM	CC(=O)c1cccc(-c2nc(Nc3cc(C)n[nH]3)c3ccccc3n2)c1 [III-57, [2-(3-Acetylphenyl)-quinazolin-4-yl]-(5-methyl-2H-pyrazol-3-yl)-amine]
100 to 1000 nM	1000 to 20000 nM	FC(F)(F)c1ccccc1-c1cc(Nc2nc[nH]n2)c2ccccc2n1 [IX-177, (1H-[1,2,4]triazol-3-yl)-[2-(2-trifluoromethyl-phenyl)-quinolin-4-yl]-amine]
< 100 nM	< 100 nM	Cc1cc(Nc2nc(-c3cccc(C#N)c3)nc3ccccc23)[nH]n1 [III-54, [2-(3-Cyanophenyl)-quinazolin-4-yl]-(5-methyl-2H-pyrazol-3-yl)-amine]
< 100 nM	< 100 nM	Cc1cc(Nc2nc(C3CCCCC3)nc3ccccc23)[nH]n1 [III-30, (2-Cyclohexyl-quinazolin-4-yl)-(5-methyl-2H-pyrazol-3-yl)-amine]
< 100 nM	< 100 nM	Cc1cc(Nc2nc(-c3cc(F)cc(F)c3)nc3ccccc23)[nH]n1 [III-51, [2-(3,5-Difluorophenyl)-quinazolin-4-yl]-(5-methyl-2H-pyrazol-3-yl)-amine]
< 100 nM	< 100 nM	CC1CCN(c2nc(Nc3cc(C4CC4)n[nH]3)c3nccc-3[nH]2)CC1 [IV-34, (5-Cyclopropyl-2H-pyrazol-3-yl)-[2-(4-methylpiperidin-1-yl)-pyrrolo[3,2-d]pyrimidin-4-yl]-amine]
< 100 nM	< 100 nM	Cc1cc(Nc2nc(-c3cccc(C(C)C)c3)nc3ccccc23)[nH]n1 [III-55, [2-(3-Isopropylphenyl)-quinazolin-4-yl]-(5-methyl-2H-pyrazol-3-yl)-amine]
< 100 nM	< 100 nM	Cc1cc(Nc2nc(-c3ccncc3)nc3ccccc23)n[nH]1 [III-9, (5-Methyl-2H-pyrazol-3-yl)-(2-pyridin-4-yl-quinazolin-4-yl)-amine]
100 to 1000 nM	100 to 1000 nM	OCc1cc(Nc2nc(N3CCCCC3)nc3ccccc23)[nH]n1 [III-124, (5-Hydroxymethyl-2H-pyrazol-3-yl)-[2-(piperidin-1-yl)-quinazolin-4-yl]-amine]
100 to 1000 nM	< 100 nM	Cc1cccc(-c2nc(Nc3cc(C)n[nH]3)c3ccccc3n2)c1 [III-50, [2-(3-Methylphenyl)-quinazolin-4-yl]-(5-methyl-2H-pyrazol-3-yl)-amine]
< 100 nM	< 100 nM	Cc1cc(Nc2nc(-c3cccnc3)nc3ccccc23)[nH]n1 [III-56, (5-Methyl-2H-pyrazol-3-yl)-(2-pyridin-3-yl-quinazolin-4-yl)-amine]
< 100 nM	< 100 nM	Clc1ccc(-c2nc(Nc3cc(C4CC4)n[nH]3)c3ccccc3n2)cc1Cl [III-46, (5-Cyclopropyl-2H-pyrazol-3-yl)-[2-(3,4-dichlorophenyl)-quinazolin-4-yl]-amine]
